The values below come from patent US9168286B2, “Methods and compositions for use in treatment of patients with autoantibody positive disease” (Human Genome Sciences, Inc., priority 2005, dated 2015).

One test concerns B cells. In words: B cell survival assay. It is filed as cell-based, mouse. Conditions: Pim-1−/−2−/− B cells, 100 ng/ml rhuNeutrokine-alpha, 4 days. From the text:
Mice: Pim-1^+/+2^+/+, Pim-1^−/−2^+/+, Pim-1^+/+2^−/− and Pim-1^−/−2^−/− mice were generated from Pim-1^+/−2^+/− stock of Paul Rothman Columbia University, New York, N.Y. C57BL/6 (B6) mice were from The Jackson Laboratory, Bar Harbor Me. or from the National Cancer Institute Production Program, NCI-Fredrick, Fredrick Md. Animals were bred and maintained at the Univ. of Pennsylvania, Harvard Medical School, or the Univ. of Massachusetts Medical School in accordance with Institutional Animal Care and Use Committee guidelines.
B cell purification: Splenic B cells were obtained by anti-thy1.2 and complement treatment of splenocytes followed by purification of resting B cells using a step wise percoll gradient and harvesting cells at the 60-70% interface. […]
Survival assays: B cells at 5×10^6/ml were cultured in 24-well tissue culture dishes in CM at 37° C. […] Survival was monitored daily by counting viable cells using trypan blue exclusion with each determination done in triplicate.
Rapamycin is a potent inhibitor of mTOR and a potent suppressor of B cell proliferation and differentiation. […] Viable cells were determined at day 4. […]

The test system of another test is Akt/mTOR pathway. Briefly: Western blotting of Akt/mTOR pathway phosphorylation in B cells. In kind it is cell-based, mouse. On the procedure:
Cell cultures: Purified B cells or CD23′ B cells were cultured in RPMI-1640 supplemented with 2-mercaptoethanol, MEM-non-essential amino acids, glutamine, penicillin and streptomycin (complete media, CM). For B cell survival and other assays recombinant human Neutrokine-alpha made at Human Genome Sciences, Rockville Md. was used at 50-100 ng/ml. FLAG-tagged human Neutrokine-alpha was from Dr. Randolph Noelle, Dartmouth Medical School. Murine Neutrokine-alpha was purchased from Alexis Biochemicals, San Diego Calif. and human interferon alpha (IFNα) from PBL Biomedical, Piscataway, N.J. Rapamycin was used at a final concentration of 50 nM, added to cultures from a stock dissolve in methanol. Control B cells in experiments using rapamycin were treated with methanol as a vehicle control. For kinetic assays B cells were prepared and refrigerated overnight at 4° C. 5-6×10^6 purified B cells per sample were spun onto 24-well plates that had been coated with 5 ug/ml monoclonal anti-FLAG M2 antibody (Sigma), washed, blocked with 1% BSA in PBS, followed by the addition of FLAG-tagged human Neutrokine-alpha 2 ug/well an hour prior to washing and cell addition. Unstimulated control B cells were those spun onto wells treated with anti-FLAG antibody alone. B cells were also activated by incubation with anti-murine IgM (5 ug/ml), anti-CD40 (0.5 ug/ml) or 100 ng/ml of recombinant human Neutrokine-alpha added to kinetic assay buffer (Hank's balanced salt solution plus 2% BSA).
Antibodies and Western Blotting: Mouse anti-Pim 2 (1D12), Pim 1 (19F7), goat anti-actin (1-19), anti-mouse Ig, anti-rabbit Ig and anti-goat Ig coupled to HRP were obtained from Santa Cruz Biotechnology, Santa Cruz Calif. […] Rabbit anti-mouse Mcl-1 was purchased from Rockland, Wilmington Mass. […]
Purified B cells were stimulated for the 0, 5, 20, 60 or 120 minutes with 100 ng/ml recombinant human or murine Neutrokine-alpha or anti-Ig (positive control) at 37° C. in pregassed medium. Lysates were prepared from iced samples and analyzed by Western Blot. […]

The next test relates to Pim1 and Pim 2. In words: Western blot of Pim1 and Pim 2 expression in primary B cells. It is filed as cell-based, mouse. Conditions: 2 days, 100 ng/ml rhuNeutrokine-alpha. On the procedure: Antibodies and Western Blotting: Mouse anti-Pim 2 (1D12), Pim 1 (19F7), goat anti-actin (1-19), anti-mouse Ig, anti-rabbit Ig and anti-goat Ig coupled to HRP were obtained from Santa Cruz Biotechnology, Santa Cruz Calif. […] Rabbit anti-mouse Mcl-1 was purchased from Rockland, Wilmington Mass. Whole cell lysates were prepared by washing B cells in ice cold PBS and lysing in RIPA (150 mM NaCl, 1% NP-40, 0.5% sodium deoxycholate, 0.1% SDS, 50 mM Tris pH8.0) supplemented with protease inhibitors (minitab, Roche, Indianapolis Ind.) and phosphatase inhibitor cocktails I and II (Sigma). 10-50 ug of protein was resolved on 4-12% NuPage bis-tris polyacrylamide gels (Invitrogen, Carlsbad Calif.) and transferred to nitrocellulose. Blots were blocked with 3% BSA (Sigma, IgG free), 0.2% Tween-20 in PBS and incubated with primary antibody in the same buffer overnight at 4° C. Blots were washed with PBS-0.2% Tween-20, incubated with secondary antibody conjugated with HRP and developed using ECLplus (Amersham Bioscience, Piscataway N.J.). Blots were stripped for reprobing by incubation for 20 minutes at 65° C. in PBS supplemented with 1% SDS and […] β-mercaptoethanol. Blots were then washed and blocked as above. […]
In general terms: A western blot detects proteins with antibodies after separation by electrophoresis.

The test system of test [1] is Neutrokine-alpha in monocytes and macrophages. In words: Neutrokine-alpha expression in cytokine-treated monocytes and macrophages. It is filed as cell-based. Conditions: in vitro.
In the next test the test system is B cell. In words: Neutrokine-alpha mediated B cell proliferation with cytokines. It is filed as cell-based. On the procedure:
In an additional embodiment, an immunomodulatory agent is administered in combination with cytokines. Cytokines that may be administered with an immunomodulatory agent include, but are not limited to, GM-CSF, G-CSF, IL2, IL3, IL4, IL5, IL6, IL7, IL10, IL12, IL13, IL15, anti-CD40, CD40L, IFN-alpha, IFN-beta, IFN-gamma, TNF-alpha, and TNF-beta. In another embodiment, an immunomodulatory agent may be administered with any interleukin, including but not limited to, IL-1alpha, IL-1beta, IL-2, IL-3, IL-4, IL-5, IL-6, IL-7, IL-8, IL-9, IL-10, IL-11, IL-12, IL-13, IL-14, IL-15, IL-16, IL-17, IL-18, IL-19, IL-20, IL-21, and IL-22. In preferred embodiments, an immunomodulatory agent is administered in combination with IL4 and IL10. Both IL4 and IL10 have been observed by the inventors to enhance Neutrokine-alpha mediated B cell proliferation.

For “Neutrokine-alpha: recombinant human Neutrokine-alpha made at Human Genome Sciences; member of the TNF family of ligands”, the B cell survival result in the test on B cells is “enhanced survival”. Moreover, the “mTOR activation (phosphorylation of p70 S6 kinase and 4E-BP1)” value in the test with Akt/mTOR pathway (primary B cells) is “activation of mTOR”. Also, the “Akt phosphorylation (serine 473 and threonine 308)” value in the test with Akt/mTOR pathway (primary B cells, 100 ng/ml, 0-120 minutes) is recorded as “activation of the Akt pathway”. In the test on Akt/mTOR pathway (purified B cells, plate bound FLAG-tagged or soluble (100 ng/ml) Neutrokine-alpha), the “phosphorylation of GSKβ, FOXO1 and FOXO3a” value is listed as “phosphorylation of the Akt substrates”. In the test with Pim1 and Pim 2, the “Pim1 and Pim 2 expression” value is given as “upregulate”.

B1: IL-10: cytokine (protein, UniProt P22301 19-178, looked up)
Interleukin-10: SPGQGTQSENSCTHFPGNLPNMLRDLRDAFSRVKTFFQMKDQLDNLLLKESLLEDFKGYLGCQALSEMIQFYLEEVMPQAENQDPDIKAHVNSLGENLKTLRLRLRRCHRFLPCENKSKAVEQVKNAFNKLQEKGIYKAMSEFDIFINYIEAYMTMKIRN
Regarding B1, in test [1], the “cell surface expression of Neutrokine-alpha” value (from here on “cell surface expression”) is recorded as “enhance”. Also, in the test on B cell, the “Neutrokine-alpha mediated B cell proliferation” value is reported as “enhance”.

B2: IFN gamma: cytokine (protein, UniProt P01579 24-161, looked up)
Interferon gamma: QDPYVKEAENLKKYFNAGHSDVADNGTLFLGILKNWKEESDRKIMQSQIVSFYFKLFKNFKDDQSIQKSVETIKEDMNVKFFNSNKKKRDDFEKLTNYSVTDLNVQRKAIHELIQVMAELSPAAKTGKRKRSQMLFRG
In the case of B2, in test [1], the “cell surface expression” value is given as “enhance”.

B3: IL-4: cytokine (protein, UniProt P05112 25-153, looked up)
Interleukin-4: HKCDITLQEIIKTLNSLTEQKTLCTELTVTDIFAASKNTTEKETFCRAATVLRQFYSHHEKDTRCLGATAQQFHRHKQLIRFLKRLDRNLWGLAGLNSCPVKEANQSTLENFLERLKTIMREKYSKCSS
Turning to B3, the “cell surface expression” value in test [1] is “decreased”. Besides, the “Neutrokine-alpha mediated B cell proliferation” value in the test with B cell is recorded as “enhance”.
